The values that follow come from patent US10618869B2, “Oligo-benzamide compounds and their use” (The Board of Regents of the University of Texas System, priority 2010, dated 2020).

“Also recorded” adds a separate entry of the source.

For one assay, the target named is T1, human AR (Homo sapiens, UniProt P10275).
T1 sequence (P10275 1-920): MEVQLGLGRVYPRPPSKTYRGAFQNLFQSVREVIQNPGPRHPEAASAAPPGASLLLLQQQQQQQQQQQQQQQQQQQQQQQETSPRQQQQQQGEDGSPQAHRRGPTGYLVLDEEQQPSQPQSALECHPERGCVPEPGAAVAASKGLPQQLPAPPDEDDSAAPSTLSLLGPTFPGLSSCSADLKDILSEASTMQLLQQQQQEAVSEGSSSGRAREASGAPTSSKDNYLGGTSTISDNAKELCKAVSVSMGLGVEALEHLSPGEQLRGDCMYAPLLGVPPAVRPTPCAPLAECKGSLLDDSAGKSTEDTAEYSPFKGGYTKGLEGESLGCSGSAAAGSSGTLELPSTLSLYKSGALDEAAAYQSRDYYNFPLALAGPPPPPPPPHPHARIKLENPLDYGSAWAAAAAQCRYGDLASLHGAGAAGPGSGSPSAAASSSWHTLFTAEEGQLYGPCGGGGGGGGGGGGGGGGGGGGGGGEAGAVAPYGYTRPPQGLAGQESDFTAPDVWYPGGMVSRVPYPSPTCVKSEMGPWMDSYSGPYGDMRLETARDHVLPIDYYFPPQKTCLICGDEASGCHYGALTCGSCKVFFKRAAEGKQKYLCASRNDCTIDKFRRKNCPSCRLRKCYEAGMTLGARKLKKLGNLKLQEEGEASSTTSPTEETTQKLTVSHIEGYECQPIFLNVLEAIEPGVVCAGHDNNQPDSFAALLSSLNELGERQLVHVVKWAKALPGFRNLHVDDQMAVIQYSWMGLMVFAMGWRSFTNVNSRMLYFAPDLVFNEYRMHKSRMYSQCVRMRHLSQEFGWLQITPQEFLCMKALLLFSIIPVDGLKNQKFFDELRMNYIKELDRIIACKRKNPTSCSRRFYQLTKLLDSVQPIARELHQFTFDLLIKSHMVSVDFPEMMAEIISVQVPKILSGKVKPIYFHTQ
Experiment: not given
The conditions noted are these: LXXLL motif-bound AF-2 interface of human AR; PLoS Biology 2:e274, 2004; read-out: Kd of LXXLL peptide; cited from earlier work.
For “SSRGLLWDLLTKDSR [LXXLL peptide co-crystallised with human AR AF-2]”, the Kd is 1800 nM.

The subject of the next assay is PCa cell lines that contain AR. The experiment in a line: DHT-induced proliferation of prostate cancer cells (MTT assay). Format: cell-based. The conditions noted are these: DHT-induced proliferation, MTT assay; structure-function series. The procedure:
FIGS. 10A-E. D2 blocks proliferation of prostate cancer cells in vitro and in vivo (a) Effect of pretreatment with 100 nM of D1 and D2 on DHT-induced proliferation in multiple prostate cancer cell lines in MTT assay. Numbers are normalized to a baseline of 100, which represents the untreated rate of proliferation. (b) Effect of pretreatment with 100 nM of D1 and D2 on DHT-induced proliferation in LNCaPcells on a Cyquant assay. (c) Dose dependent curve of D2 on proliferation of LAPC4 cells. (d) Rescue of DHT induced proliferation by overexpression of PELP1 following suppression of DHT induced proliferation with 100 nM of D2. (e). Effect of direct intratumoral injections of D1 and D2 on the proliferation of prostate cancer xenografts in animal models: Following establishment of subcutaneous xenografts in animal models, daily direct intratumoral injections of D1 and D2 were performed. Bioluminesence imaging was used to track the growth of the tumors and the effect of D1 and D2 quantitated as shown in the graph.
The importance of PELP1 and AR interaction on DHT-mediated proliferation of prostate cancer cells were confirmed using rescue experiments, where D2 suppression of DHT-mediated proliferation was overcome by overexpression of PELP1 in LNCaP PCa cells.
In this experiment, cells were plated (2-10×10^3/well) in 96 well plates and subjected to androgen deprivation for 48 hours with phenol-red free RPMI and 1% charcoal stripped fetal bovine serum (CSF). Cells were then treated with either ethanol, EGF or DHT as a positive control for 48 hours. Peptidomimetics were added 2 hours prior to treatment. Cell proliferation was measured using the MTT colorimetric assay.
Cells were plated (2-10×10^3/well) in 96-well plates and subjected to androgen deprivation for 48 hours with phenol-red free RPMI and 1% charcoal stripped fetal bovine serum (CSF). Cells were then treated with either ethanol or DHT as a positive control for 48 hours Peptidomimetics were added 2 hours prior to treatment. Cell proliferation was measured using the MTT colorimetric assay.
Background: Tetrazolium assays rely on reduction of a dye to a coloured formazan, in cell work by metabolically active cells.
With `COC(=O)c1ccc(NC(=O)c2ccc(NC(=O)CN)c(OCC(C)C)c2)c(OCC(C)C)c1` [D2-4], the “activity on the proliferation of prostate cancer cells (FIGS. 17, 19A-N)” value (“activity on the proliferation” for short) is given as “maximal activity; also recorded: good activity”.

Regarding `CC(C)COc1cc(C(=O)Nc2ccc(C(N)=O)cc2OCC(C)C)ccc1NC(=O)CCC(=O)O` [D2-12], the “activity on the proliferation” value is “good activity”.

In the case of `CC(C)COc1cc(C(=O)Nc2ccc(C(=O)N(C(C)C)C(C)C)cc2OCC(C)C)ccc1NC(=O)CN` [D2-23], the “activity on the proliferation” value is on record as “good activity”.

Consider `CC(C)COc1cc(C(=O)Nc2ccc(C(=O)NCCCCO)cc2OCC(C)C)ccc1NC(=O)CN` [D2-26], for which the “activity on the proliferation” value was “good activity”.

For `COC(=O)c1ccc(NC(=O)c2ccc([N+](=O)[O-])c(NCC(C)C)c2)c(NCC(C)C)c1` [D2-47], the “activity on the proliferation” value is “good activity”.

With `C=C(C)COc1cc(C(=O)OC)ccc1NC(=O)c1ccc([N+](=O)[O-])c(OCC(=C)C)c1` [D29], the “activity on the proliferation” value was “good activity”.

Consider `CC(C)COc1cc(C(=O)Nc2ccc(C(N)=O)cc2OCCc2ccc3ccccc3c2)ccc1NC(=O)c1ccc([N+](=O)[O-])c(OCC(C)C)c1` [TK6-R], for which the “activity on the proliferation” value was “good activity”.

For orientation: Kd means the constant that tells how readily two partners part at equilibrium.
